# Reference: patent US20260176270A1 (Exelixis, Inc., priority 2022, published 2026)
# Like-named read-outs stand apart in the source and are kept apart here.
# Experiments:
# PKMYT1 = biological target: T1, PKMYT1 (Homo sapiens, UniProt Q99640); test: ADP-Glo PKMYT1 ATP-depletion assay; conditions: 50 nM PKMYT1, 13.3 nM CDK1, read-out: Biochemical IC50
# T1 construct: PKMYT1 (93 kD, full length, N-terminal GST tag from Signal Chem); GST (N); purchased Signal Chem
# T1 sequence (Q99640 1-499): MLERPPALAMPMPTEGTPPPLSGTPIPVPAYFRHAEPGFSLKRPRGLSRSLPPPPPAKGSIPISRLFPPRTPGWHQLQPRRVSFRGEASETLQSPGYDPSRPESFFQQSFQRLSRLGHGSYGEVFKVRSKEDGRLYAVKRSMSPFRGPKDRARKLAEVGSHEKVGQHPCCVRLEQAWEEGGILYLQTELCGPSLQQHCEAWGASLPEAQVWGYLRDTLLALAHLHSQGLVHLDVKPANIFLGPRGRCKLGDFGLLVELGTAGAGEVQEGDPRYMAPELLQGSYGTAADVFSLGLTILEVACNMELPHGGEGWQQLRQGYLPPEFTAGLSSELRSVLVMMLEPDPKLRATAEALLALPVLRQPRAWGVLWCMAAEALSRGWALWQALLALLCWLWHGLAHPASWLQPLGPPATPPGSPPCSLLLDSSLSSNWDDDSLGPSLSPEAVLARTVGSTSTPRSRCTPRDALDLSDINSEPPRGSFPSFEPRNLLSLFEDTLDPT
# Procedure, shortened: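 Full-length N-terminal GST-tagged PKMYT1 (50 nM) with GST-CDK1 (13.3 nM) as substrate and 88 µM ATP, in Hepes buffer with MgCl2, MnCl2, DTT and BSA; DMSO <1%. Incubated 120 min at RT. ADP formed was quantified by ADP-Glo luminescence and used to derive biochemical IC50.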
# [1] = test system: phosphorylation of CDK1 at Thr14 in HCC1806 cells; test: Cell lysate AlphaLISA assay measuring inhibition of phosphorylation of CDK1 Thr14; type: cell-based; conditions: read-out: Cellular IC50
# Procedure, shortened: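 HCC1806 cells seeded overnight, then treated 4 h at 37 °C, 5% CO2 with compounds in DMSO; washed and lysed, lysates frozen overnight at −80 °C. CDK1 Thr14 phosphorylation read by AlphaLISA SureFire Ultra; data normalized to DMSO (0% inhibition) and 3 μM reference compound to give IC50.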
IC50 (PKMYT1) [nM],IC50 ([1]; 4 hours) [nM],"IC50 ([1]; Homo sapiens, HCC1806, 4 h) [nM]",Compound
≥ 5000,≥ 5000,–,"Cc1ccc2[nH]nc(F)c2c1-c1c(N)c(C(N)=O)cc2nccnc12 (atropisomer, axis not shown) [Compound 299]"
≥ 5000,–,≥ 5000,NC(=O)c1cc2nccnc2c(-c2cc(O)ccc2C(F)(F)F)c1N [Compound 215]
≥ 5000,–,≥ 5000,NC(=O)c1nc2cccnc2c(-c2cccc3occc23)c1N [Compound 250]
1000 to 5000,–,≥ 5000,N#Cc1cccc2nc(C(N)=O)c(N)c(-c3cncnc3)c12 [Compound 236]
≥ 5000,≥ 5000,–,"Cc1ccc(O)c(C)c1-c1c(N)c(C(N)=O)nc2c(C(F)(F)F)cccc12 (single isomer, unassigned) [Compound 31, (P)-3-amino-4-(3-hydroxy-2,6-dimethylphenyl)-8-(trifluoromethyl) quinoline-2-carboxamide]"
≥ 5000,–,≥ 5000,"Cc1ccc2[nH]ncc2c1-c1cc(C(N)=O)nc2ccccc12 [Compound 15, 4-(5-Methyl-1H-indazol-4-yl)quinoline-2-carboxamide]"
1000 to 5000,–,≥ 5000,Cn1ncc2c(-c3c(N)c(C(N)=O)nc4cccnc34)cncc21 [Compound 332]
50 to 500,500 to 1000,–,CCn1ccc2cc(C(N)=O)c(N)c(-c3cccc(O)c3C)c2c1=O [Compound 324]
50 to 500,–,≥ 5000,NC(=O)c1cc2nccnc2c(-c2cncc(O)c2)c1N [Compound 145]
1000 to 5000,≥ 5000,–,"Cc1ccc(O)c(C)c1-c1c(N)c(C(N)=O)nc2ccc(F)cc12 (atropisomer, axis not shown; (P)) [Compound 24, (P)-3-amino-6-fluoro-4-(3-hydroxy-2,6-dimethylphenyl) quinoline-2-carboxamide]"
50 to 500,1000 to 5000,–,"Cc1n[nH]c2cccc(-c3c(N)c(C(N)=O)cc4nccnc34)c12 (single isomer, unassigned) [Compound 118, (M)-7-Amino-8-(3-methyl-1H-indazol-4-yl)quinoxaline-6-carboxamide]"
1000 to 5000,–,≥ 5000,NC(=O)c1nc2cccnc2c(-c2cnn3ccccc23)c1N [Compound 323]
< 50,50 to 500,–,COc1ccnc2c(-c3cccc(O)c3C)c(N)c(C(N)=O)cc12 [Compound 318]
50 to 500,500 to 1000,–,Cc1cncc(C2=c3ncccc3=NC(C(N)=O)C2N)c1C (stereo not drawn) [Compound 212]
1000 to 5000,≥ 5000,–,"Cc1c(O)cc(Cl)cc1-c1c(N)c(C(N)=O)nc2cccnc12 (atropisomer, axis not shown) [Compound 289]"
50 to 500,–,50 to 500,"Cc1nc2cc(C(N)=O)c(N)c(-c3cccc(O)c3C)c2nc1C [Compound 91, 7-Amino-8-(3-hydroxy-2-methylphenyl)-2,3-dimethylquinoxaline-6-carboxamide]"
500 to 1000,1000 to 5000,–,"Cc1ccc2c(-c3cccc(O)c3C)c(N)c(C(N)=O)nc2c1 (single isomer, unassigned) [Compound 49, (M)-3-Amino-4-(3-hydroxy-2-methylphenyl)-7-methylquinoline-2-carboxamide]"
50 to 500,500 to 1000,–,"NC(=O)c1nc2cccnc2c(-c2c(F)ccc3[nH]ncc23)c1N (atropisomer, axis not shown) [Compound 244]"
≥ 5000,≥ 5000,–,"Cc1n[nH]c2cccc(-c3c(N)c(C(N)=O)cc4nccnc34)c12 (single isomer, unassigned) [Compound 119, (P)-7-amino-8-(3-methyl-1H-indazol-4-yl)quinoxaline-6-carboxamide]"
1000 to 5000,–,1000 to 5000,"COc1ccc2c(-c3c(C)ccc(O)c3C)c(N)c(C(N)=O)nc2c1 [Compound 47, 3-Amino-4-(3-hydroxy-2,6-dimethylphenyl)-7-methoxyquinoline-2-carboxamide]"
≥ 5000,≥ 5000,–,"Cc1c(-c2c(N)c(C(N)=O)cc3nccnc23)ccnc1O [Compound 110, 7-Amino-8-(2-hydroxy-3-methylpyridin-4-yl)quinoxaline-6-carboxamide]"

IC50 (PKMYT1) [nM],IC50 ([1]; 4 hours) [nM],"IC50 ([1]; Homo sapiens, HCC1806, 4 h) [nM]",Compound
≥ 5000,≥ 5000,–,"Cc1ccc2[nH]ncc2c1-c1c(N)c(C(N)=O)cc2nccnc12 (single isomer, unassigned) [Compound 79, (M)-7-amino-8-(5-methyl-1H-indazol-4-yl)quinoxaline-6-carboxamide]"
50 to 500,1000 to 5000,–,"Cc1ccc2[nH]ncc2c1-c1c(N)c(C(N)=O)cc2nccnc12 (single isomer, unassigned) [Compound 78, (P)-7-Amino-8-(5-methyl-1H-indazol-4-yl)quinoxaline-6-carboxamide]"
≥ 5000,–,≥ 5000,"Cc1n[nH]c2cccc(-c3cc(C(N)=O)cc4nccnc34)c12 [Compound 72, 8-(3-Methyl-1H-indazol-4-yl)quinoxaline-6-carboxamide]"
50 to 500,–,1000 to 5000,"Cc1ccc(O)c(C)c1-c1c(N)c(C(N)=O)nc2ccc(Cl)cc12 [Compound 36, 3-Amino-6-chloro-4-(3-hydroxy-2,6-dimethyl-phenyl) quinoline-2-carboxamide]"
1000 to 5000,≥ 5000,–,"Cc1c(O)cccc1-c1c(N)c(C(N)=O)cc2ncc(C(F)(F)F)nc12 (single isomer, unassigned) [Compound 125, (M)-7-Amino-8-(3-hydroxy-2-methylphenyl)-2-(trifluoromethyl)-quinoxaline-6-carboxamide]"
50 to 500,–,1000 to 5000,"Cc1c(O)cncc1-c1c(N)c(C(N)=O)cc2nccnc12 [Compound 113, 7-amino-8-(5-hydroxy-4-methylpyridin-3-yl)quinoxaline-6-carboxamide]"
50 to 500,–,50 to 500,"Cc1ccc(O)c(C)c1-c1c(N)c(C(N)=O)nc2c(C(F)(F)F)cccc12 [Compound 28, 3-Amino-4-(3-hydroxy-2,6-dimethylphenyl)-8-(trifluoromethyl)quinoline-2-carboxamide]"
500 to 1000,–,≥ 5000,"Cc1ccc2[nH]ncc2c1-c1c(N)c(C(N)=O)nc2ccccc12 [Compound 17, 3-Amino-4-(5-methyl-1H-indazol-4-yl)quinoline-2-carboxamide]"
< 50,50 to 500,–,Cc1cnc2cc(C(N)=O)c(N)c(-c3c(C)ccc(O)c3C)c2n1 [Compound 156]
≥ 5000,–,≥ 5000,"Cc1c(-c2c3c(cc4nccnc24)C(=O)NC(C)(C)N3)ccc(F)c1O (atropisomer, axis not shown) [Compound 312]"
50 to 500,–,50 to 500,"NC(=O)c1cc2nccnc2c(-c2cccc(O)c2F)c1N [Compound 120, 7-Amino-8-(2-fluoro-3-hydroxyphenyl)quinoxaline-6-carboxamide]"
50 to 500,1000 to 5000,–,"Cc1ccc(O)c(C)c1-c1c(N)c(C(N)=O)nc2ccc(Cl)cc12 (single isomer, unassigned) [Compound 53, (M)-3-Amino-6-chloro-4-(3-hydroxy-2,6-dimethylphenyl)quinoline-2-carboxamide]"
≥ 5000,–,500 to 1000,NC(=O)c1nc2cccnc2c(-c2cccc3c2CCN3)c1N [Compound 160]
50 to 500,1000 to 5000,–,"Cc1ccc2[nH]ncc2c1-c1c(N)c(C(N)=O)nc2cccnc12 (single isomer, unassigned) [Compound 7, (P)-3-amino-4-(5-methyl-1H-indazol-4-yl)-1,5-naphthyridine-2-carboxamide]"
50 to 500,1000 to 5000,–,Cc1c(O)cccc1-c1c(N)c(C(N)=O)cc2nc(C(F)(F)F)c(O)nc12 [Compound 133]
50 to 500,1000 to 5000,–,Cc1c(O)cc(Cl)cc1-c1c(N)c(C(N)=O)nc2cccnc12 [Compound 248]
500 to 1000,–,1000 to 5000,"Cc1ccc(O)c(C)c1-c1c(N)c(C(N)=O)nc2c(C)cccc12 [Compound 27, 3-Amino-4-(3-hydroxy-2,6-dimethylphenyl)-8-methylquinoline-2-carboxamide]"
< 50,50 to 500,–,COc1ccc2nc(C(N)=O)c(N)c(-c3cccc(O)c3C)c2n1 [Compound 157]
50 to 500,500 to 1000,–,"Cc1ccc(O)cc1-c1c(N)c(C(N)=O)cc2nccnc12 (atropisomer, axis not shown; (M)) [Compound 116, (M)-7-Amino-8-(5-hydroxy-2-methylphenyl)quinoxaline-6-carboxamide]"
1000 to 5000,≥ 5000,–,"Cc1c(O)cccc1-c1c(N)c(C(N)=O)cc2c1ncc(=O)n2C (atropisomer, axis not shown) [Compound 283]"
≥ 5000,–,≥ 5000,NC(=O)c1cc2nccnc2c(-c2ccc3ncoc3c2)c1N [Compound 198]
